# In patent US20170066801A1, “ALPHA3BETA HYDROGEN BOND SURROGATE MACROCYCLES AS MODULATORS OF RAS” (NEW YORK UNIVERSITY, priority 2014, published 2017):
# Experiments:
# [1] = tested on: panel of six human cancer cell lines; assay: Growth and viability of a panel of six human cancer cell lines; type: cell-based; conditions: single administration of 5 μM, six days
# Protocol: Various indicated cell lines were plated at low density (˜500-1000 cells per well) in a 96-well format. 12 hours post-plating, media was supplemented with either PBS vehicle, or indicated dosage, and cells were allowed to grow for ˜5.5 days. Cells were subsequently fixed for 1 hour with a 3.7% formaldehyde solution in PBS, and stained with Syto-60 nucleic acid stain (MANUFACTURER) in solution (1:2000 Syto-60, 0.5% Triton X-100, 100 ug/mL RNAse-A, in PBS). Syto-60 stained cells were subjected to quantitative imaging in 96-well plates (Odyssey® Imager, LI-COR Biosciences; excitation: 652; emission: 678) with a 3.0 mm z-axis offset to the scan-head to get the cellular nuclei in the optimal focal plane for quantification. Absolute fluorescence intensity was normalized to the vehicle control for each respective cell line at each dose. Normalized values were visualized on a semilog plot, and data was subjected to non-linear sigmoidal dose-response to determine half-maximal effective concentration (EC50) using GraphPad Prism version 6.00 for OSX, (GraphPad Software, La Jolla Calif. USA, www.graphpad.com).
# To investigate the functional consequence of inhibiting Ras activation in the context of oncogenic mutations, we examined the effect of α3β-HBSSOS on the growth and viability of cancer cells of different origins. We selected a panel of six human cancer cell lines derived from the pancreas, colon, and bladder, which harbor a variety of oncogenic proteins including mutant KRas (Table 3).
# α3β-HBSSOS reduces cell viability in a dose dependent manner, with the effect spanning over four orders of magnitude. We divided the cell lines into two groups with respect to EC50 values (Table 3). […] We hypothesized that differential cellular uptake may account for the different potency of the peptides between the oncogenic and wild type RTK-Ras cell lines.
# [2] = target: T1, wild type NRas (Homo sapiens, UniProt P01111); assay: RBD-pulldown of GTP-loaded Ras in MIA PaCa-2 cells; type: cell-based; conditions: 48 hours
# T1 construct: levels of GTP-loaded endogenous HRas, KRas, and NRas proteins; endogenous in cells; host or cells: MIA PaCa-2
# Protocol: (§1) To determine the effect of α3β-HBSSOS on Sos-mediated Ras activation in cells we treated MIA PaCa-2 cells, which harbor oncogenic KRas, with α3β-HBSSOS, control peptides, or vehicle control for 48 hours. Utilizing the RBD-pulldown assay we determined the levels of GTP-loaded endogenous HRas, KRas, and NRas proteins. As expected, MIA PaCa-2 cells display GTP-loading of all isoforms at steady state when treated with the vehicle control (FIGS. 11A-B).
# [3] = target: T2, wild type HRas (Homo sapiens, UniProt P01112); assay: RBD-pulldown of GTP-loaded Ras in MIA PaCa-2 cells; type: cell-based; conditions: 48 hours
# T2 construct: levels of GTP-loaded endogenous HRas, KRas, and NRas proteins; endogenous in cells; host or cells: MIA PaCa-2
# Protocol: as §1
# [4] = target: 6×His-tagged HRas WT 1-166 (UniProt P01112); assay: in vitro pull-down: fluorescein-tagged peptide on 6×His-HRas 1-166 / Ni-NTA beads, in-gel fluorescence
# T1 sequence (P01111 whole entry): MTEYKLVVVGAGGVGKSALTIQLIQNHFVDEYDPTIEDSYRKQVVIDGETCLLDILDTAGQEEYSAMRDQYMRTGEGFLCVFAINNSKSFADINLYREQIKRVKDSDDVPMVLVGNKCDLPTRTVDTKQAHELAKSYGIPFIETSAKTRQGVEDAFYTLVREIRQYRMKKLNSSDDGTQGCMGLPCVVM
GTP-loading of wild type NRas [2],GTP-loading of wild type HRas [3],fold greater affinity than α-HBSSOS [4] [fold],Molecule,effect on cell growth relative to vehicle control [1]
–,–,–,"CC[C@H](C)[C@H](NC(=O)CN1C/C=C\CCC(=O)N[C@@H](Cc2ccccc2)C(=O)N[C@@H](CCC(=O)O)C1=O)C(=O)N[C@@H](Cc1ccc(O)cc1)C(=O)N[C@@H](CCCNC(=N)N)C(=O)N[C@@H](CC(C)C)C(=O)N[C@@H](CCC(=O)O)C(=O)N[C@@H](CC(C)C)C(=O)N[C@@H](CC(C)C)C(=O)N[C@@H](CCCCN)C(=O)N[C@@H](C)C(=O)N[C@@H](CCC(=O)O)C(=O)N[C@@H](CCC(=O)O)C(=O)N[C@@H](C)C(=O)N[C@@H](CC(N)=O)C(N)=O [α-HBSSOS, reference compound]",no effect on cell growth
not,not,–,ZAEG*iYRLeLLKaEAAA-NH2 [α3β-HBSMUT],no effect on cell growth
–,–,50,"FEGIYRLELLKAEEANK (not fully specified; printed as ZFEG*iYRLeLLKaEEANK(Flu)-NH2: Z = N-terminal 5-hexenoic acid residue; G* (position 3) = bridged allylglycine residue (hydrogen bond surrogate macrocycle between Z and G3); lowercase i (position 4), e (position 8), a (position 12) = β3-residues; K17 carries fluorescein (Flu); C-terminal amide) [α3β-HBSSOS-Flu]",–
